Test results: patent US9012492B2, “Apocynin-lipoic acid conjugates and uses thereof” (priority 2011, dated 2015)
Where two headings read alike, the source gives them in different places.

Legend:
[1] = Stability in sodium phosphate buffer (HPLC); type: physicochemical; conditions: for Half life: buffer; for half-life: buffer without microsomes and without NADPH
Description: The stability of the compound of Formula (Ia) in a sodium phosphate buffer (50 mM, pH 7.4) was evaluated using HPLC. […] Area counts of apocynin and lipoid acid were found in 0 minute samples and were generally constant until the last time point measured (see: FIGS. 11-12 and Tables 5-6).

[2] = system: rat liver microsomes; test: Metabolic stability using rat liver microsomes; type: in vitro ADME; set-up: half-life: dose or concentration left out as unconfirmed
Source text: (§1) Table 7 summarizes the experimental conditions used in the studies of the metabolic stability of the compound of Formula (Ia) using rat liver microsomes. Table 8 and FIG. 13 show the results from the studies of the metabolic stability of the compound of Formula (Ia) using rat liver microsomes. [table]

[3] = system: dog liver microsomes (DLM); test: Metabolic stability using dog liver microsomes; type: in vitro ADME
Source text: (§2) Table 9 summarizes the experimental conditions used in the studies of the metabolic stability of the compound of Formula (Ia) using dog liver microsomes and human liver microsomes.

[4] = system: human liver microsomes (HLM); test: Metabolic stability using human liver microsomes; type: in vitro ADME
Source text: as §2

[5] = system: Sprague-Dawley rats; conditions: previous studies, cited from earlier work
[6] = system: markers of oxidative stress (SOD1, SOD2, GSH, GSSG, H2O2, HNE-His adducts, DNA fragmentation); conditions: administered 30 min prior to I/R; same model, previously demonstrated; cited from earlier work
[7] = system: N27 neuronal cells; test: DNA fragmentation ELISA after hydrogen peroxide exposure of N27 neuronal cells; type: cell-based; conditions: for DNA cell fragmentation: n = 4
Description: Specifically, the effects of (Ia) on oxidative stress in N27 neuronal cells, a dopaminergic cell line were studied. […]
The cells were then lysed, and DNA fragmentation was determined by ELISA assay.

[8] = Metabolic stability using rat liver microsomes; type: in vitro ADME; set-up: half-life: dose or concentration left out as unconfirmed; conditions: rat, rat liver microsomes, pH 7.4
Source text: as §1

[9] = Metabolic stability using dog liver microsomes; type: in vitro ADME; conditions: dog, dog liver microsomes, pH 7.4; DLM control (without NADPH)
Source text: as §2

[10] = Metabolic stability using human liver microsomes; type: in vitro ADME; conditions: human
Source text: as §2

[11] = matrix buffer (no microsomes, no NADPH), DLM/HLM study
[12] = matrix buffer (no microsomes, no NADPH), rat liver microsome study

Question: For “1,2-dithiolane-2-pentanoic acid [lipoic acid]”, which “CLintr (mL/min/g liver)” value [1] is on record?
Answer: Its value is 0.9 mL/min/g liver.

Question: And the “Half life” value [1]?
Answer: The value was >30 min.

Question: What about the “% Metabolism in 30 minutes” value [1, 11] of the same compound?
Answer: The value was 0%.

Question: And the “% Metabolism in 30 minutes” value [1, 12]?
Answer: The value was 0%.

Question: And the “CLintr (mL/min/g liver)” value ([1]; rat)?
Answer: The value was <0.6 mL/min/g liver.

Question: What about the “Half life” value ([1]; rat) of the same compound?
Answer: The value was >30 min.

Question: What about the “CLintr (mL/min/g liver)” value ([2]; rat, microsomes) of the same compound?
Answer: Its value is <0.6 mL/min/g liver.

Question: What about the “Half life” value ([2]; rat, microsomes) of the same compound?
Answer: The value was >30 min.

Question: What about the “Half life” value ([3]; dog, microsomes) of the same compound?
Answer: Its value is >30 min.

Question: And the “% Metabolism in 30 minutes” value [4]?
Answer: The value was 0%.

Question: What about the “CLintr (mL/min/g liver)” value ([4]; human, microsomes) of the same compound?
Answer: The value was <0.6 mL/min/g liver.

Question: What about the “Half life” value ([4]; human, microsomes) of the same compound?
Answer: Its value is >30 min.

Question: What about the “neuroprotection when administered just prior to the beginning of reperfusion” value ([5]; 5 mg/kg) of the same compound?
Answer: The value was “did not result in significant neuroprotection”.

Question: And the most effective dose ([5]; I/R model)?
Answer: The most effective dose was 5 mg/kg.

Question: And the SOD2 activity [6]?
Answer: Its SOD2 activity is “increased SOD2 activity”.

Question: What does the source list for COc1cc(C(C)=O)ccc1O [Apocynin, 4-hydroxy-3-methoxyacetophenone]?
Answer: DNA fragmentation induced by hydrogen peroxide reduced by ([7]; pretreatment 100 μM): 41%; DNA cell fragmentation ([7]; pretreatment 100 μM, then hydrogen peroxide (1 mM)): 244 ± 32 percentage of control; half-life [1, 11]: > 30 min; half-life [1, 12]: > 30 min; % Metabolism in 30 minutes [1, 11]: 1%; CLintr (mL/min/g liver) [1, 11]: <0.6 mL/min/g liver; % Metabolism in 30 minutes [1, 12]: 0%; CLintr (mL/min/g liver) [1, 12]: <0.6 mL/min/g liver; half-life at 0.5 µM ([8]; RLM, control (without NADPH)): > 30 min; % Metabolism in 30 minutes ([2]; RLM, control (without NADPH)): 2%; CLintr (mL/min/g liver) ([2]; RLM, control (without NADPH)): <0.6 mL/min/g liver; % Metabolism in 30 minutes ([2]; RLM, reaction (with NADPH)): 0%; CLintr (mL/min/g liver) ([2]; RLM, reaction (with NADPH)): <0.6 mL/min/g liver; Half life ([2]; RLM, reaction (with NADPH)): >30 min; half-life at 0.5 µM [9]: > 30 min; % Metabolism in 30 minutes ([3]; DLM control (without NADPH)): 0%; CLintr (mL/min/g liver) ([3]; DLM control (without NADPH)): <0.6 mL/min/g liver; % Metabolism in 30 minutes ([3]; DLM reaction (with NADPH)): 30%; CLintr (mL/min/g liver) ([3]; DLM reaction (with NADPH)): 1.6 mL/min/g liver; Half life ([3]; DLM reaction (with NADPH)): >30 min; half-life ([10]; human liver microsomes, HLM control (without NADPH)): > 30 min; % Metabolism in 30 minutes ([4]; HLM control (without NADPH)): 0%; CLintr (mL/min/g liver) ([4]; HLM control (without NADPH)): <0.6 mL/min/g liver; % Metabolism in 30 minutes ([4]; HLM reaction (with NADPH)): 0%; CLintr (mL/min/g liver) ([4]; HLM reaction (with NADPH)): <0.6 mL/min/g liver; Half life ([4]; HLM reaction (with NADPH)): >30 min; SOD2 activity [6]: ineffective

Question: Which “DNA fragmentation induced by hydrogen peroxide reduced by” value ([7]; pretreatment 10 μM) does the source give for c1ccc2c(c1)[I+]c1ccccc1-2 [DPI, diphenyleneiodonium] here?
Answer: Its value is 48%.

Question: What about the DNA cell fragmentation ([7]; pretreatment 10 μM, then hydrogen peroxide (1 mM)) of the same compound?
Answer: The DNA cell fragmentation was 208 ± 38 percentage of control.

Question: Which DNA cell fragmentation ([7]; hydrogen peroxide alone (6 hr)) does the source give for OO [Hydrogen Peroxide, hydrogen peroxide] here?
Answer: The DNA cell fragmentation was 428 ± 52 percentage of control.

Question: Which results are given for O=C(O)Cc1ccccc1Nc1c(Cl)cccc1Cl [diclofenac]?
Answer: half-life ([8]; matrix RLM (positive control)): 11 min; % Metabolism in 30 minutes ([2]; matrix RLM (positive control)): 84%; CLintr (mL/min/g liver) ([2]; matrix RLM (positive control)): 6.4 mL/min/g liver; half-life ([10]; microsomes, matrix HLM (positive control)): 9 min; % Metabolism in 30 minutes ([4]; matrix HLM (positive control)): 92%; CLintr (mL/min/g liver) ([4]; matrix HLM (positive control)): 8.4 mL/min/g liver
